B1: cryptogein (protein, UniProt P15570 21-118, looked up)
Beta-elicitin cryptogein: TACTATQQTAAYKTLVSILSDASFNQCSTDSGYSMLTAKALPTTAQYKLMCASTACNTMIKKIVTLNPPNCDLTVPTSGLVLNVYSYANGFSNKCSSL
notes: an elicitin derived from oomycete, Phytophthora cryptogea; trigger material (elicitor)

Assays:
OsWRKY45 = settings: rice; cited from earlier work
[1] = system: innate immunity in tobacco plant; assay: Innate immunity gene expression (PR1a, PR1b) in tobacco seedlings after cryptogein; format: in vivo, Nicotiana tabacum; settings: 6 days on compound, cryptogein 2000 nM, 0, 1 and 24 h (FIG. 4)
Experimental: (§1) Total RNA was isolated from plant cells using Trizol (Invitrogen, Carlsbad, Calif., USA) reagent in accordance with the manufacturer's protocol and quantified using a spectrophotometer. First-strand cDNA was synthesized from 3 μg total RNA with an oligo-dT primer and reverse transcriptase.
(§2) Real-time PCR was performed using an ABI PRISM 7300 sequence detection system (Applied Biosystems, Foster City, Calif., USA) with SYBR Green real-time PCR Master Mix (TOYOBO, Osaka, Japan) and the gene-specific primers. PCR amplification was performed with an initial denaturation at 95° C. for 10 min followed by 40 cycles of incubations at 95° C. for 15 s, 60° C. for 15 s, and 72° C. for 45 s. Relative mRNA abundances were calculated using the comparative Ct method. Actin or tubulin was used as an internal control. The following primers were used in the experiment.
Tobacco seedlings were grown on MS plate for 7 days and then the seedlings were transferred to MS plates containing chemical compounds. After grown for 6 days, cryptogein (2000 nM) was added to the medium and the samples for RNA extraction were collected at the indicated time (0, 1 and 24 h).

[2] = system: salicylic acid-dependent defense pathway and jasmonic acid-dependent defense pathway; assay: Defense gene expression (PR1, PDF1.2) in Arabidopsis seedlings, real-time RT-PCR; format: in vivo, Arabidopsis thaliana; settings: Arabidopsis seedlings on MS plates containing compound for 3 or 6 days (FIG. 2)
Experimental: as §1, §2
Arabidopsis seedlings were grown on MS plate for 12 days and then the seedlings were transferred to MS plates containing chemical compounds. After grown for 3 or 6 days, the samples for RNA extraction were collected.

[3] = system: Pseudomonas syringae pv tomato (Pst) DC3000; assay: Pathogen infection assay in Arabidopsis thaliana (Col-0); format: in vivo; settings: Arabidopsis thaliana (Col-0) irrigated with compound for 5 days, dip inoculation with Pst DC3000, 3 days (FIG. 3)
Experimental: Arabidopsis thaliana (Col-0) were grown in sterilized potting soil (Kureha) in plastic pots (5 cm×5 cm×5 cm) inside a growth chamber under a 16 h-8 h light-dark regimen at 22° C. with 60% humidity. After grown for 3 weeks, plants were irrigated with chemical compounds for 5 days.
Pseudomonas syringae pv tomato (Pst) DC3000 was cultured in nutrient broth medium (Eiken Chemical) for 24 h at 28° C., and a bacterial suspension was prepared in 10 mM MgCl2 (2×10^5 colony-forming units per mL). Challenge inoculation was performed by dipping the plants in bacterial solution. After incubation for 3 days at 22° C., the leaves were harvested from the inoculated plants. Three to four leaves from different plants were combined, weighed, and then homogenized in 10 mM MgCl2; the homogenate was then plated on nutrient broth agar containing rifampicin (50 mg/L) at appropriate dilutions. After incubation for 2 days at 28° C., the number of rifampicin-resistant bacterial colonies was counted. More than six homogenized samples were prepared for each experiment.

innate immunity in rice = assay: Innate immunity gene expression (PBZ1, WRKY45) in rice seedlings after N-acetylchitoheptaose; format: in vivo, Oryza sativa; settings: 2 days on compound, [GlcNAc]7 10 μM, observed 24 hours after elicitor (FIG. 5)
tobacco leaves = assay: Salicylic acid accumulation in tobacco leaves after cryptogein; format: in vivo; settings: tobacco leaves treated with 2,000 nM cryptogein; range from several thousand, varying with conditions
Experimental: In the case of tobacco BY-2 cells compared to normal tobacco plant, the salicylic acid accumulation level of untreated tobacco BY-2 cells is from 10 to 20 ng/g (fresh weight), while the salicylic acid accumulation level of untreated tobacco leaves is several hundred ng/g (fresh weight). When treated with 2,000 nM cryptogein, the salicylic acid accumulation level of treated tobacco BY-2 cells increases to a level of approximately from 100 to 150 ng/g (fresh weight), while the salicylic acid accumulation level of treated tobacco leaves increases to, though varying depending on conditions, a level in the range of from several thousand ng/g (fresh weight) to 10,000 ng/g (fresh weight).

Row | Molecule | enhancement of immune response after treatment with cryptogein [1] | activation of salicylic acid-dependent and jasmonic acid-dependent defense pathways [2] | further results
1 | c1ccc2snnc2c1 [BTH, benzothiadiazole] | – | – | time to upregulation of OsWRKY45 after treatment (OsWRKY45): ≤ 3 h
2 | O=c1cc(N2CCNCC2)oc2c(-c3ccccc3)cccc12 [Compound 2, LY303511] | enhanced an immune response | activated both the salicylic acid-dependent defense pathway and the jasmonic acid-dependent defense pathway | –
3 | Cn1cnc(=N)c2nc[nH]c21 [Compound 3, 3MA] | enhanced an immune response | activated both the salicylic acid-dependent defense pathway and the jasmonic acid-dependent defense pathway | resistance to a plant disease [3]: effective in enhancing resistance to a plant disease; enhancement of immune response after elicitor application (innate immunity in rice): enhanced an immune response
4 | B1 | – | – | salicylic acid accumulation level (tobacco leaves): ≤ 10,000 ng/g (fresh weight)
